# Source: patent US9289471B2, “Product and process for liquefaction of mucus or sputum” (National Jewish Health, priority 2002, dated 2016)
# Tests used:
# Set-up in all cases: species or system human
# [1] = Glycoprotein content of sputum aqueous and gel phases by PAS staining; settings: 10 or 30 μM Trx with reducing system, 20 min (FIG. 5)
# Description: Extraction of soluble glycoproteins from sputum was performed according to methodology outlined by Davies et al. (Davies and Carlstedt, Methods Mol Biol 125:3-13, 2000). 275 μl of CF sputum was treated for 20 minutes at 37° C. with 25 μl of H2O alone or H2O containing Trx (10 or 30 μM)+NADPH (2 mM) and TR (0.1 μM). After treatment, 100 μl of H2O containing 1 mM disopropylflurophosphate and 10 μg ml aprotinin, was added to each sample, followed by 15 minute centrifugation at 22,000 g at 4° C. The resulting supernatant (aqueous phase) of each sample was transferred to a new microcentrifuge tube and stored at −20° C. […]
# The glycoprotein content of aqueous and gel phase samples were evaluated by staining with periodic acid Schiff reagent (PAS) according to methodology outlined by Thornton et al. (Thornton et al., Methods Mol Biol 125:77-85, 2000). […]
# Disulfide bonds on mucin glycoprotein polymers are potential targets for reduction by Trx. […] After treatment, the resulting soluble and insoluble phases of each sample were separated and analyzed for glycoprotein content by periodic acid/Schiff reagent (PAS) staining Specifically, fractions were loaded and electrophoresed in a 1% agarose (w/v) gel, transferred to PVDF membrane, and stained with periodic acid/Schiff reagent as described in materials and methods. […]
# DNA in CF sputum = experiment: Total DNA content of sputum gel and liquid phases by Hoechst assay; settings: Trx (30 μM) + reducing system, 20 min, mean ± S.D., n=5 (FIG. 6)
# Description: 275 μl of CF sputum was incubated with no treatment, 25 μl of H2O, or 25 μl of H2O containing Trx (30 μM)+TR (0.1 μM) and NADPH (2 mM). After 20 minute incubation at 37° C., 100 μl of H2O was added to each sample, followed by centrifugation (22,000×g) for 10 minutes. Resulting gel and liquid phases were separated and incubated with an equal volume of digestion solution consisting of 100 mM Tris Cl, 5 mM EDTA, 200 mM NaCl, 0.5% Tween 20, and 1 mg/ml proteinase K for 4 hours at 50° C. DNA was purified from liquid and gel phases by phenol/chloroform extraction and resuspended in 100 μl of TE buffer, pH 8.0. DNA concentrations were determined by Hoechst assay (Labarca and Paigen, Anal Biochem 102:344-352, 1980) using an F-2000 fluorometer (Hitachi, Schaumburg, Ill.) with an excitation wavelength of […] and an emission wavelength of 555 nm. Salmon testis DNA, dissolved in TE buffer, was used to establish the standard curve.
# The presence of high amounts of extracellular DNA in CF airway secretions contributes to the excessive viscoelasticity of CF sputum. To evaluate what effect Trx has on the solubility of DNA in sputum, sputum samples (275 μl) were incubated with either no additions, diluent (H2O), or Trx (30 μM)+reducing system for 20 minutes, and then separated into gel (insoluble) and liquid (soluble) phases. […]
# [2] = Magnetic microrheometry: viscoelasticity (log G*) of CF sputum; settings: for decrease in log G* (before minus after exposure): 20 min (FIG. 4A); for log G* after treatment: 37° C., 20 minutes; for log G* after treatment / log G* before treatment: mean ± standard error; for decline in viscoelasticity (log G*): Trx (30 μM), TR (0.1 μM); for log G* before treatment: baseline, 4 samples
# Description: Viscoelastic change in response to treatment was measured by means of a magnetic microrheometer as developed by King (King M., Magnetic microrheometer. In: Methods in Bronchial Mucology, edited by Braga P C, and Allegra L. New York: Raven Press, 1988, p. 73-83). An 80-120 μm steel sphere was placed in a 10 mg sputum sample. An electromagnet was used to oscillate this sphere, whose image was projected onto a pair of photocells via a microscope. […] G* was the mechanical impedance or vector sum of viscosity and elasticity. For Trx and NADPH dose response experiments, log G* at 10 rad/s was measured before any treatment (baseline), and then after 20 minute incubation with no treatment, diluent (H2O), or Trx with reducing system. All treatments were administered to the sample in a volume of H2O equal to 10% of total sample volume. One measurement was performed per aliquot of sample.
# Magnetic microrheometry was performed to determine the effect of Trx and its reducing system on sputum viscosity. Measurements were performed on sputum samples before and after incubation with the Trx reducing system (Table 1) to determine the change in log G* (viscoelasticity).
# In the experiment shown in FIG. […] Each column represents the mean±standard error for 4 samples (♦Statistically significant from H2O diluent value). […]
substance,measurement,setting,value
"Trx: Lyophilized recombinant E. coli Trx from Promega; protein disulfide reductase, used with its reducing system (TR + NADPH)",amount of PAS-reactive glycoproteins in soluble and gel phases versus diluent,[1],greater amounts of PAS-reactive glycoproteins
same,electrophoretic mobility of glycoforms versus diluent-treated samples,[1],greater electrophoretic mobility
same,DNA content of gel (insoluble) phase,DNA in CF sputum,0.55 ± 0.31 mg
same,DNA content of liquid (soluble) phase,DNA in CF sputum,0.57 ± 0.37 mg
same,decrease in log G* (before minus after exposure),[2]; 3 μM Trx + 0.1 μM TR + 2 mM NADPH,0.26 log units
same,log G* after treatment,[2]; 3 μM Trx + 0.1 μM TR and 2 μM NADPH,3.11 ± 0.04
same,decrease in log G* (before minus after exposure),[2]; 10 μM Trx + 0.1 μM TR + 2 mM NADPH,0.39 log units
same,log G* after treatment,[2]; 10 μM Trx + 0.1 μM TR and 2 μM NADPH,2.94 ± 0.05
same,decrease in log G* (before minus after exposure),[2]; 30 μM Trx + 0.1 μM TR + 2 mM NADPH,0.65 log units
same,log G* after treatment,[2]; 30 μM Trx + 0.1 μM TR and 2 μM NADPH,2.63 ± 0.04
same,sputum viscoelasticity,"[2]; 20 minute treatment with 3, 10, or 30 μM Trx",significantly diminished
same,decline in viscoelasticity (log G*),[2]; 0.2 mM NADPH (FIG. 4B),0.16 log units
same,decline in viscoelasticity (log G*),[2]; 0.6 mM NADPH (FIG. 4B),0.26 log units
same,decline in viscoelasticity (log G*),[2]; 2 mM NADPH (FIG. 4B),0.39 log units
same,log G* before treatment,[2]; aliquots for 3 μM Trx,3.37 ± 0.06
same,log G* before treatment,[2]; aliquots for 10 μM Trx,3.33 ± 0.06
same,log G* before treatment,[2]; aliquots for 30 μM Trx,3.28 ± 0.04
